Each compound was assayed against MAPK14 (human) (UniProt Q16539) (assay: Assessment of MAPK14 Kinase Activity).
Chain of MAPK14 (human) (Q16539 whole entry, looked up): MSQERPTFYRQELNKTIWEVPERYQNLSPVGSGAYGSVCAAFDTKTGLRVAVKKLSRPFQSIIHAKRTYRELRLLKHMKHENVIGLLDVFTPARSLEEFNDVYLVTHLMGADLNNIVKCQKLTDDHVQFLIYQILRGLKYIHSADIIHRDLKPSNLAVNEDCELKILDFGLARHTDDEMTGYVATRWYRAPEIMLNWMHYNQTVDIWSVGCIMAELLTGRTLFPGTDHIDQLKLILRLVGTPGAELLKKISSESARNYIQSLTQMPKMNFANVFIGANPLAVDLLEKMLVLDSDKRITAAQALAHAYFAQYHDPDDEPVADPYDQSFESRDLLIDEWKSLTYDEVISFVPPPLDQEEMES

IC50	Structure (SMILES)
< 1000 nM	Cc1ccc(C(=O)NC2CC2)cc1-n1ncc(C(=O)c2cccc(C#N)c2)c1N
< 1000 nM	Cc1ccc(C(=O)NC2CC2)cc1-n1nc(OCCOCc2ccccc2)c(C(=O)c2ccccc2)c1N
< 1000 nM	Cc1ccc(C(=O)NC2CC2)cc1-n1ncc(C(=O)NC2CCc3ccccc32)c1N (configuration not stated)
< 1000 nM	CCOC(=O)c1c(C)nn(-c2cc(C(=O)NC3CC3)ccc2C)c1N
< 1000 nM	Cc1ccc(C(=O)NC2CC2)cc1-n1ncc(C(=O)c2cccc(CO)c2)c1N
< 1000 nM	Cc1ccc(C(=O)NC2CC2)cc1-n1ncc(C(=O)NCC(C)(C)C)c1N
< 1000 nM	Cc1ccc(C(=O)NC2CC2)cc1-n1ncc(C(=O)c2cccc(C3OCCO3)c2)c1N
< 1000 nM	CONC(=O)c1ccc(C)c(-n2ncc(C(=O)c3ccccc3)c2N)c1
< 1000 nM	Cc1ccc(C(=O)NC2CC2)cc1-n1ncc(C(=O)Nc2ccccc2)c1N
< 1000 nM	CCOC(=O)c1c(OCC(=O)NCc2cccc(Cl)c2)nn(-c2cc(C(=O)NC3CC3)ccc2C)c1N
< 1000 nM	Cc1ccc(C(=O)NC2CC2)cc1-n1nc(OC2CCN(C(=O)OC(C)(C)C)CC2)c(C(=O)c2ccccc2)c1N
1000 to 10000 nM	Cc1ccc(C(=O)O)cc1-n1ncc(C(=O)c2cccc(I)c2)c1N
< 1000 nM	Cc1ccc(C(=O)NC2CC2)cc1-n1ncc(C(=O)c2cccc(I)c2)c1N
< 1000 nM	Cc1ccc(C(=O)NC2CC2)cc1-n1cnc(C(=O)c2ccccn2)c1N
< 1000 nM	CCOC(=O)c1cnn(-c2cc(C(=O)NC3CC3)ccc2C)c1N
< 1000 nM	Cc1ccc(C(=O)NC2CC2)cc1-n1cnc(C(=O)C2CCCCC2)c1N
< 1000 nM	Cc1ccc(C(=O)NC2CC2)cc1-n1cnc(C(=O)c2ccc3c(c2)OCO3)c1N
< 1000 nM	Cc1ccc(C(=O)NC2CC2)cc1-n1ncc(C(=O)c2cccc(C=O)c2)c1N
< 1000 nM	Cc1ccc(C(=O)NC2CC2)cc1-n1cnc(C(=O)C2CCOCC2)c1N
< 1000 nM	Cc1ccc(C(=O)NC2CC2)cc1-n1ncc(C(=O)c2cccc(-c3nnco3)c2)c1N
< 1000 nM	Cc1ccc(C(=O)NC2CC2)cc1-n1ncc(C(=O)c2cccc(OCC(O)CO)c2)c1N (configuration not stated)
< 1000 nM	CONC(=O)c1ccc(C)c(-n2ncc(C(=O)c3cccc(I)c3)c2N)c1
< 1000 nM	Cc1ccc(C(=O)NC2CC2)cc1-n1ncc(C(=O)c2ccccc2)c1N
< 1000 nM	Cc1ccc(C(=O)NC2CC2)cc1-n1ncc(C(=O)NC2CCCCC2C)c1N (configuration not stated)
< 1000 nM	Cc1ccc(-c2nnc[nH]2)cc1-n1ncc(C(=O)c2ccccc2)c1N
1000 to 10000 nM	Cc1ccc(C(=O)O)cc1-n1ncc(C(=O)c2ccccc2)c1N

Structure (SMILES)	IC50
COc1nn(-c2cc(C(=O)NC3CC3)ccc2C)c(N)c1C(=O)c1ccccc1	< 1000 nM

— the Kinase Knowledgebase extract (Sharma et al. 2016)
